The values below come from paper PMC3337729 (Anesthesiology, 2011).

Assay [1] has as its target T1, Complex I (NADH-ubiquinone oxidoreductase) (Rattus norvegicus, UniProt A6K8N6+P03889+Q5XIH3+Q641Y2). Nature of the assay: rotenone-sensitive NADH oxidation, absorbance at […] nm. In kind it is biochemical. As to conditions: 0.2 mM NADH, antimycin A present.
For assay [2], the target named is T1, Complex I (NADH-ubiquinone oxidoreductase). The description is as above. Type of assay: biochemical. Conditions: read-out: % of control activity at 0.5 mM.

Consider `CCCCCCCCCCC1=C(C)C(=O)C(OC)=C(OC)C1=O` [decylubiquinone], for which the “rotenone-sensitive NADH oxidation, absorbance at 340 nm” value in assay [1] (decylubiquinone printed as 75 mM) was “rotenone-sensitive reduction of NADH absorbance using decylubiquinone as acceptor”.

As for `NC(=O)C1=CN([C@@H]2O[C@H](COP(=O)(O)OP(=O)(O)OC[C@H]3O[C@@H](n4cnc5c(N)ncnc54)[C@H](O)[C@@H]3O)[C@@H](O)[C@H]2O)C=CC1` [NADH], the “rotenone-sensitive NADH oxidation, absorbance at 340 nm” value in assay [1] (decylubiquinone acceptor) was “Complex I activity was determined by the rotenone-sensitive reduction of NADH absorbance using decylubiquinone”.

In the case of `FC(F)OC(Cl)C(F)(F)F` (stereo not drawn) [isoflurane], in assay [2], the remaining activity at 500 µM is 86 ± 5%.
